According to ChEMBL document CHEMBL4507301 (2021):

What was measured:
[1] = system: Hepatocyte growth factor receptor (Homo sapiens), P08581 [M1250T]; conditions: Compound concentration 1000.0 nM
[2] = molecular target: Receptor tyrosine-protein kinase erbB-3 (Homo sapiens) (UniProt P21860); conditions: Compound concentration 1000.0 nM
[3] = molecular target: Cyclin-dependent kinase 15 (Homo sapiens) (UniProt Q96Q40); conditions: Compound concentration 1000.0 nM
[4] = system: Tyrosine-protein kinase ABL1 (Homo sapiens), P00519 [E255K]; conditions: Compound concentration 1000.0 nM
[5] = molecular target: Megakaryocyte-associated tyrosine-protein kinase (Homo sapiens) (UniProt P42679); conditions: Compound concentration 1000.0 nM
[6] = molecular target: Phosphatidylinositol 4-phosphate 5-kinase type-1 gamma (Homo sapiens) (UniProt O60331); conditions: Compound concentration 1000.0 nM
[7] = molecular target: Muscarinic acetylcholine receptor M1 (Homo sapiens) (UniProt P11229); conditions: Compound concentration 10.0 uM
[8] = molecular target: Glycogen synthase kinase-3 alpha (Homo sapiens) (UniProt P49840); conditions: Compound concentration 1000.0 nM
[9] = molecular target: Aurora kinase A (Homo sapiens) (UniProt O14965); conditions: Compound concentration 1000.0 nM
[10] = molecular target: Serine/threonine-protein kinase N2 (Homo sapiens) (UniProt Q16513); conditions: Compound concentration 1000.0 nM
[11] = molecular target: NUAK family SNF1-like kinase 1 (Homo sapiens) (UniProt O60285); conditions: Compound concentration 1000.0 nM
[12] = molecular target: Mitogen-activated protein kinase kinase kinase 3 (Homo sapiens) (UniProt Q99759); conditions: Compound concentration 1000.0 nM
[13] = molecular target: Serine/threonine-protein kinase LATS1 (Homo sapiens) (UniProt O95835); conditions: Compound concentration 1000.0 nM
[14] = molecular target: Serine/threonine-protein kinase ULK2 (Homo sapiens) (UniProt Q8IYT8); conditions: Compound concentration 1000.0 nM
[15] = molecular target: Death-associated protein kinase 1 (Homo sapiens) (UniProt P53355); conditions: Compound concentration 1000.0 nM
[16] = molecular target: Insulin receptor (Homo sapiens) (UniProt P06213); conditions: Compound concentration 1000.0 nM
[17] = molecular target: Calcium/calmodulin-dependent protein kinase kinase 1 (Homo sapiens) (UniProt Q8N5S9); conditions: Compound concentration 1000.0 nM
[18] = molecular target: cGMP-dependent protein kinase 1 (Homo sapiens) (UniProt Q13976); conditions: Compound concentration 1000.0 nM
[19] = molecular target: Mitogen-activated protein kinase kinase kinase kinase 1 (Homo sapiens) (UniProt Q92918); conditions: Compound concentration 1000.0 nM
[20] = molecular target: Tyrosine-protein kinase Fes/Fps (Homo sapiens) (UniProt P07332); conditions: Compound concentration 1000.0 nM
[21] = molecular target: AP2-associated protein kinase 1 (Homo sapiens) (UniProt Q2M2I8); conditions: Compound concentration 1000.0 nM
[22] = molecular target: Calcium/calmodulin-dependent protein kinase type II subunit delta (Homo sapiens) (UniProt Q13557); conditions: Compound concentration 1000.0 nM
[23] = molecular target: Tyrosine-protein kinase Srms (Homo sapiens) (UniProt Q9H3Y6); conditions: Compound concentration 1000.0 nM
[24] = molecular target: Receptor-type tyrosine-protein kinase FLT3 (Homo sapiens) (UniProt P36888); conditions: Compound concentration 1000.0 nM
[25] = molecular target: Phosphatidylinositol 4,5-bisphosphate 3-kinase catalytic subunit delta isoform (Homo sapiens) (UniProt O00329); conditions: Compound concentration 1000.0 nM
[26] = system: Epidermal growth factor receptor (Homo sapiens), P00533 [T790M]; conditions: Compound concentration 1000.0 nM
[27] = molecular target: Serine/threonine-protein kinase Nek5 (Homo sapiens) (UniProt Q6P3R8); conditions: Compound concentration 1000.0 nM
[28] = molecular target: D(3) dopamine receptor (Homo sapiens) (UniProt P35462); conditions: Compound concentration 10.0 uM
[29] = system: Tyrosine-protein kinase ABL1 (Homo sapiens), P00519 [Q252H]; conditions: Compound concentration 1000.0 nM
[30] = molecular target: Hepatocyte growth factor receptor (Homo sapiens) (UniProt P08581); conditions: Compound concentration 1000.0 nM
[31] = molecular target: Interferon-induced, double-stranded RNA-activated protein kinase (Homo sapiens) (UniProt P19525); conditions: Compound concentration 1000.0 nM
[32] = system: Epidermal growth factor receptor (Homo sapiens), P00533 [G719C]; conditions: Compound concentration 1000.0 nM
[33] = molecular target: Serine/threonine-protein kinase PknB (Mycobacterium tuberculosis) (UniProt P9WI81); conditions: Compound concentration 1000.0 nM
[34] = molecular target: Ribosomal protein S6 kinase alpha-6 (Homo sapiens) (UniProt Q9UK32); conditions: Compound concentration 1000.0 nM
[35] = system: Proto-oncogene tyrosine-protein kinase receptor Ret (Homo sapiens), P07949 [V804M]; conditions: Compound concentration 1000.0 nM
[36] = molecular target: Eukaryotic translation initiation factor 2-alpha kinase 1 (Homo sapiens) (UniProt Q9BQI3); conditions: Compound concentration 1000.0 nM
[37] = molecular target: Citron Rho-interacting kinase (Homo sapiens) (UniProt O14578); conditions: Compound concentration 1000.0 nM
[38] = system: ALK tyrosine kinase receptor (Homo sapiens), Q9UM73 [C1156Y]; conditions: Compound concentration 1000.0 nM
[39] = molecular target: 5-hydroxytryptamine receptor 1A (Homo sapiens) (UniProt P08908); conditions: Compound concentration 10.0 uM
[40] = molecular target: Alpha-1B adrenergic receptor (Homo sapiens) (UniProt P35368); conditions: Compound concentration 10.0 uM
[41] = molecular target: Fibroblast growth factor receptor 3 (Homo sapiens) (UniProt P22607); conditions: Compound concentration 1000.0 nM
[42] = molecular target: Serine/threonine-protein kinase RIO2 (Homo sapiens) (UniProt Q9BVS4); conditions: Compound concentration 1000.0 nM
[43] = molecular target: Tyrosine-protein kinase JAK2 (Homo sapiens) (UniProt O60674); conditions: Compound concentration 1000.0 nM
[44] = system: Tyrosine-protein kinase ABL1 (Homo sapiens), P00519 [F317L]; conditions: Compound concentration 1000.0 nM
[45] = molecular target: Serine/threonine-protein kinase PLK4 (Homo sapiens) (UniProt O00444); conditions: Compound concentration 1000.0 nM

Tyrosine-protein kinase Fes/Fps (Homo sapiens), sequence (P07332 whole entry): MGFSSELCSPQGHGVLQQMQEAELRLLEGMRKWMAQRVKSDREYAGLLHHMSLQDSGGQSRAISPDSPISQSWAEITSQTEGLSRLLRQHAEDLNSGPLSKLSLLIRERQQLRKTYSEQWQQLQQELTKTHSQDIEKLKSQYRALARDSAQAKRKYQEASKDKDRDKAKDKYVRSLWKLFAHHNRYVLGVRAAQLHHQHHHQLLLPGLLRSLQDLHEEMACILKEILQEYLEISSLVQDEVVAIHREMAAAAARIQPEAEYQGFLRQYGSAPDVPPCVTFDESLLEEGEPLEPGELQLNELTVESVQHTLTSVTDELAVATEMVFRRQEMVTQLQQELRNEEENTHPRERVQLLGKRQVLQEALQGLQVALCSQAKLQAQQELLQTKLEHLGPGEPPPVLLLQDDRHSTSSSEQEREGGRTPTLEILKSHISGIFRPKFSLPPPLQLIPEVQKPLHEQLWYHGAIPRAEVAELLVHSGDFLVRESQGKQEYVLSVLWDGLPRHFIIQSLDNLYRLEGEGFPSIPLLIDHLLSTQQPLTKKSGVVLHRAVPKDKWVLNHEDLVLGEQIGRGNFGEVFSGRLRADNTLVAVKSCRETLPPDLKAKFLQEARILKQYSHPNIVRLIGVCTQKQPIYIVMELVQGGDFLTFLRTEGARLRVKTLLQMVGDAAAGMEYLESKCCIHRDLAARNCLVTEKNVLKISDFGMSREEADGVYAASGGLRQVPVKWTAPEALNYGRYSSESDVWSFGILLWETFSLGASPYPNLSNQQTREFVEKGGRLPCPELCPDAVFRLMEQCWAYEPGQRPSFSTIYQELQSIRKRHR
Mitogen-activated protein kinase kinase kinase kinase 1 (Homo sapiens), sequence (Q92918 whole entry, looked up): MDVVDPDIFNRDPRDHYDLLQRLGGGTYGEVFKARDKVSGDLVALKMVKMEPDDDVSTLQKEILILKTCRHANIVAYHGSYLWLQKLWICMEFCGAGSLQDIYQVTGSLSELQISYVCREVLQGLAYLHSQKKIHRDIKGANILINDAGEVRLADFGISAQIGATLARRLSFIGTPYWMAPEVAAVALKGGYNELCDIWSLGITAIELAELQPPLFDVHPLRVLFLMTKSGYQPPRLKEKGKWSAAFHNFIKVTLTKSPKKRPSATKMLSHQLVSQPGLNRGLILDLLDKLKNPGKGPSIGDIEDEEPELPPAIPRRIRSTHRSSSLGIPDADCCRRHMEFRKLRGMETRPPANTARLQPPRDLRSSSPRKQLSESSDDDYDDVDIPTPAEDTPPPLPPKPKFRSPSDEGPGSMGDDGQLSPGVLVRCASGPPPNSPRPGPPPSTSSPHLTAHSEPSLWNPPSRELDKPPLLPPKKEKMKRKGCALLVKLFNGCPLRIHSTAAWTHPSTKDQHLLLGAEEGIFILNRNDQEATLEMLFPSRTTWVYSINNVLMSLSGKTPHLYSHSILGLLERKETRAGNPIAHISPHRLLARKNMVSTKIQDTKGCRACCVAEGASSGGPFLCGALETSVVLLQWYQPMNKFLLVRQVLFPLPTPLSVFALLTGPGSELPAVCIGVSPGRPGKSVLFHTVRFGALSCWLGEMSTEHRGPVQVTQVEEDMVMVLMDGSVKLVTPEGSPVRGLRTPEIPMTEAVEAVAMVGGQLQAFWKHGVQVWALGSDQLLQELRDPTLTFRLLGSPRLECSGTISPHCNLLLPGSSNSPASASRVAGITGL
Mitogen-activated protein kinase kinase kinase 3 (Homo sapiens), sequence (Q99759 whole entry): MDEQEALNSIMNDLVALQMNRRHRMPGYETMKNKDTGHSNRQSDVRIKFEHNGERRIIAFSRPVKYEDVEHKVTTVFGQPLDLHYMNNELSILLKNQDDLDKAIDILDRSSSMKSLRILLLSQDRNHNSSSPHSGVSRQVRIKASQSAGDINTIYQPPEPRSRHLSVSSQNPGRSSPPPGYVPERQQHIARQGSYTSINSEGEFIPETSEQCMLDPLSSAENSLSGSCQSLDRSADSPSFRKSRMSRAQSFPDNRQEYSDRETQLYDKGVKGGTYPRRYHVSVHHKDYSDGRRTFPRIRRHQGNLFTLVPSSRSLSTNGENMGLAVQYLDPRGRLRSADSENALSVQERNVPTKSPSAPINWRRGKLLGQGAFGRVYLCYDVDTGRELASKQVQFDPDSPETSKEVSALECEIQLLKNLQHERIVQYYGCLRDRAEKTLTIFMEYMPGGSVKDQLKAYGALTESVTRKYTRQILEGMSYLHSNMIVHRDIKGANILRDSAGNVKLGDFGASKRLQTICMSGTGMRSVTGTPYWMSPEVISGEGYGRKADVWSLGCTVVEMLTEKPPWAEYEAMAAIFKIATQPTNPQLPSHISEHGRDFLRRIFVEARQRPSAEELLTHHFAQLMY
Death-associated protein kinase 1 (Homo sapiens), sequence (P53355 whole entry, looked up): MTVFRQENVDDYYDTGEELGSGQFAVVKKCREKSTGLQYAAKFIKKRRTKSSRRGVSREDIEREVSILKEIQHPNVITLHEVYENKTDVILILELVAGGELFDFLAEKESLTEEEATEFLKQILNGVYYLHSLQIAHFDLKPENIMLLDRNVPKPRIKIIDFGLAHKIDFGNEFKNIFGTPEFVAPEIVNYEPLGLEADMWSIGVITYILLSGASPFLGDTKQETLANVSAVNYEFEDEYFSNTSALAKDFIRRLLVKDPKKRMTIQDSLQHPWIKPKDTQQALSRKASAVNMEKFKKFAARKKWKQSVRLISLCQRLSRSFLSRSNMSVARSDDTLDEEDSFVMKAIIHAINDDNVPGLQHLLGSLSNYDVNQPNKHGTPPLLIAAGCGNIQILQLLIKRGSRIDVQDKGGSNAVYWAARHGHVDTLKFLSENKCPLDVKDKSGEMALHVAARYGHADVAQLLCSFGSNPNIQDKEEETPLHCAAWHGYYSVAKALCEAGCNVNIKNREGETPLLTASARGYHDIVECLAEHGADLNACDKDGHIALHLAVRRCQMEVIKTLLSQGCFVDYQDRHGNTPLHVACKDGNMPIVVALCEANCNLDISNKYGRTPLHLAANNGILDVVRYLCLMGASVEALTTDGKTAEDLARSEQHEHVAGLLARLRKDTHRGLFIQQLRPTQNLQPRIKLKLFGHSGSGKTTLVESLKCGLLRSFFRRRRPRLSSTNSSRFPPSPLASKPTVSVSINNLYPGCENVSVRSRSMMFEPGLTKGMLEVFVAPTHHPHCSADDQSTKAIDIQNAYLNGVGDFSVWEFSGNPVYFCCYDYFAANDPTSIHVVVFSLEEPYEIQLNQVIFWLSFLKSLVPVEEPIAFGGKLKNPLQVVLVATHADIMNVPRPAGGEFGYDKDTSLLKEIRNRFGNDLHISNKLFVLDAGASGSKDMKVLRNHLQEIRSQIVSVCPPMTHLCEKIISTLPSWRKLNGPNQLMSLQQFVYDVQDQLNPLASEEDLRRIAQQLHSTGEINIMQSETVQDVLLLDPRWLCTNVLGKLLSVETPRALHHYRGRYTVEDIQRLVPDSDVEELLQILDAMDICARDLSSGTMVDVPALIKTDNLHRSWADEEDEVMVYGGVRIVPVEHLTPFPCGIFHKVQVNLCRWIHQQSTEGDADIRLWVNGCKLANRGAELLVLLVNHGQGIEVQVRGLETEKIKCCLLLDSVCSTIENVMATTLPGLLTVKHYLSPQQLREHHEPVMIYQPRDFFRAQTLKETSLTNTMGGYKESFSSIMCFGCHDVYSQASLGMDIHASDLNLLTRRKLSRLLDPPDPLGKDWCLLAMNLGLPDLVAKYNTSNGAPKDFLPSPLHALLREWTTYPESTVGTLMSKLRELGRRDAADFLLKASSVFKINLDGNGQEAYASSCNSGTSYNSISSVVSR
Tyrosine-protein kinase Srms (Homo sapiens), sequence (Q9H3Y6 whole entry): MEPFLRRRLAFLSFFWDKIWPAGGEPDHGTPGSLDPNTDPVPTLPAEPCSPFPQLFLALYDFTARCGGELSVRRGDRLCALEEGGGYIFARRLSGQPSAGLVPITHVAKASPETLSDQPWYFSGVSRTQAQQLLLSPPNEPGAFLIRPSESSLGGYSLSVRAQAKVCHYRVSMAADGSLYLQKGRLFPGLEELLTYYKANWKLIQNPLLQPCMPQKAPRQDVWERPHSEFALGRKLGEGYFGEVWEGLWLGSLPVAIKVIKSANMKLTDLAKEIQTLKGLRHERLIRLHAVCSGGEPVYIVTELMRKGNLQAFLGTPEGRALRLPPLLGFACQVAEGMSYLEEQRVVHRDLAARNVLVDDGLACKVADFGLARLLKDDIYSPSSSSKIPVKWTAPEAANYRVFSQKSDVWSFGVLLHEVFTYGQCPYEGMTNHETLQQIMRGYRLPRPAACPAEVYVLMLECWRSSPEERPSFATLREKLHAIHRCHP
Aurora kinase A (Homo sapiens), sequence (O14965 whole entry): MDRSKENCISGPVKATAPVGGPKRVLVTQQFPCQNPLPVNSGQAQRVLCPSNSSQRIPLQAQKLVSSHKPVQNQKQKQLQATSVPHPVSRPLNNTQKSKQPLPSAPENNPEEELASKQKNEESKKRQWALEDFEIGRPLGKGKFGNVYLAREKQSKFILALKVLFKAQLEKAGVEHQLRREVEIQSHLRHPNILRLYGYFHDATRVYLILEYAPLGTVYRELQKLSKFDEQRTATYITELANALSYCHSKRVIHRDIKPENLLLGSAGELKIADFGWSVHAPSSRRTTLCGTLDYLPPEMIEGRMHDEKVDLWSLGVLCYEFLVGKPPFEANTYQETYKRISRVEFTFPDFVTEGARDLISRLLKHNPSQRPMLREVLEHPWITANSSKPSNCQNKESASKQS
Cyclin-dependent kinase 15 (Homo sapiens), sequence (Q96Q40 whole entry): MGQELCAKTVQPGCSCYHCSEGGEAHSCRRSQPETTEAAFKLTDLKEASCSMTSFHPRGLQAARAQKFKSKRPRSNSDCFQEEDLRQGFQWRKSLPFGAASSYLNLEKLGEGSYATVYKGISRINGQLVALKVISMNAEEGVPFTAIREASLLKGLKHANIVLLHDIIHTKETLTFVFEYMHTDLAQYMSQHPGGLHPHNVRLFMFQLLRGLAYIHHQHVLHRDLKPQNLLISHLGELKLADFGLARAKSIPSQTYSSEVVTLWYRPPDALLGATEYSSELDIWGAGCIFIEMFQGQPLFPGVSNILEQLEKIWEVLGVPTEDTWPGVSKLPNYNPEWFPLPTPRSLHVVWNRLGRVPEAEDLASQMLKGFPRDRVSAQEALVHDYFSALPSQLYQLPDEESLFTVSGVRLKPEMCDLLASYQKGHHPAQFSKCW

C[C@H](c1cccc(C#N)c1)n1cc(Cl)cc(C(N)=O)c1=N [(R)-9s]
inactive: residual activity [1] 100% | residual activity [2] 92% | residual activity [3] 84% | residual activity [4] 87% | residual activity [5] 100% | residual activity [6] 99% | inhibition [7] 9.11% | residual activity [8] 61% | residual activity [9] 97% | residual activity [10] 100% | residual activity [11] 57% | residual activity [12] 91% | residual activity [13] 74% | residual activity [14] 71% | residual activity [15] 100% | residual activity [16] 97% | residual activity [17] 87% | residual activity [18] 100% | residual activity [19] 100% | residual activity [20] 53% | residual activity [21] 100% | residual activity [22] 100% | residual activity [23] 75% | residual activity [24] 90% | residual activity [25] 99% | residual activity [26] 80% | residual activity [27] 93% | inhibition [28] 7.03% | residual activity [29] 84% | residual activity [30] 100% | residual activity [31] 100% | residual activity [32] 100% | residual activity [33] 89% | residual activity [34] 91% | residual activity [35] 100% | residual activity [36] 100% | residual activity [37] 96% | residual activity [38] 89% | inhibition [39] -4.95% | inhibition [40] -1.16% | residual activity [41] 88% | residual activity [42] 74% | residual activity [43] 100% | residual activity [44] 75% | residual activity [45] 100%

C[C@@H](c1cccc(C#N)c1)n1cc(Cl)cc(C(N)=O)c1=N [(S)-9s]
inactive: residual activity [1] 99% | residual activity [2] 91% | residual activity [3] 89% | residual activity [4] 82% | residual activity [5] 100% | residual activity [6] 100% | inhibition [7] 14.9% | residual activity [8] 82% | residual activity [9] 96% | residual activity [10] 100% | residual activity [11] 89% | residual activity [12] 95% | residual activity [13] 69% | residual activity [14] 89% | residual activity [15] 100% | residual activity [16] 100% | residual activity [17] 100% | residual activity [18] 100% | residual activity [19] 96% | residual activity [20] 77% | residual activity [21] 100% | residual activity [22] 100% | residual activity [23] 83% | residual activity [24] 92% | residual activity [25] 100% | residual activity [26] 93% | residual activity [27] 100% | inhibition [28] -3.38% | residual activity [29] 78% | residual activity [30] 93% | residual activity [31] 100% | residual activity [32] 100% | residual activity [33] 100% | residual activity [34] 82% | residual activity [35] 89% | residual activity [36] 95% | residual activity [37] 100% | residual activity [38] 98% | inhibition [39] 1.02% | inhibition [40] -5.97% | residual activity [41] 100% | residual activity [42] 83% | residual activity [43] 100% | residual activity [44] 85% | residual activity [45] 100%
